According to patent US20240140983A1, “SINGLE STRANDED DNA ENZYME INHIBITORS” (MASSEY UNIVERSITY, priority 2021, published 2024):

Tests used:
[1] = biological target: T1, wild-type APOBEC3A (Homo sapiens, UniProt P31941); experiment: NMR assay: wild-type APOBEC3A-catalysed deamination of dC-hairpin-3, Lambert's W function; assay type: biochemical; settings: pH 7.4, 140 nM enzyme, 500 μM dC-hairpin-3
T1 construct: His7 (C); made in house
Method: Inhibitors were tested in the NMR assay monitoring APOBEC3A-catalysed deamination of dC-hairpin-3. Deamination data was analysed using Lambert's W function as described in Example 5.

[2] = tested on: A3BCTD-QM-ΔL3-AL1swap; experiment: NMR assay: inhibition of A3BCTD-QM-ΔL3-AL1swap-catalyzed deamination of a linear substrate (initial rates); assay type: biochemical, human; settings: for Ki / Vmax: 5′-AT3dCAT3 substrate, 50 nM enzyme; for inhibition effect: Km of 5′-AT3dCAT3 (150 μM) compared with apparent Ki: non-linear regression analysis
Method: FIG. 6. is a set of graphs showing inhibition of A3BCTD-QM-ΔL3-AL1swap-catalyzed deamination of 5′-T4CAT by dZ/FdZ-containing linear and cross-linked oligos. Initial rate of deamination was measured under the following experimental conditions: 400 μM of 5′-T4CAT, 8 μM (A, B) or 4 μM (C) of dZ/FdZ-containing oligos, 300 nM (A, B) or 200 nM (C) of A3BCTD-QM-ΔL3-AL1swap in a 50 mM sodium phosphate buffer (pH 6.0) containing 100 mM NaCl, 2.5 mM β-mercaptoethanol, 0.1 M EDTA, 50 μM 3-(trimethylsilyl)-2,2,3,3-tetradeuteropropionic acid (TSP) at 25° C. Error bars are estimated standard deviations from triplicate measurements.
FIG. 13 is a graph showing the inhibition of A3BCTD-QM-ΔL3-AL1swap-catalyzed deamination of 5′-T4CAT by linear oligos containing dZ, 34R, 34S and 46. Initial rate of deamination was measured under the following experimental conditions: 400 μM of 5′-T4CAT, at oligo concentration as indicated, 300 nM of A3BCTD-QM-ΔL3-AL1swap in a 50 mM sodium phosphate buffer (pH 6.0) containing 100 mM NaCl, 2.5 mM β-mercaptoethanol, 0.1 M EDTA, 50 μM 3-(trimethylsilyl)-2,2,3,3-tetradeuteropropionic acid (TSP) and 20% D2O at 25° C. Error bars are estimated standard deviations from triplicate measurements.
The inhibition potential of cross-linked oligos was investigated by changing dC to dZ or FdZ in these constructs. The NMR assay described in Example 4 was used to compare the internally cross-linked dZ/FdZ-containing oligos with a linear DNA inhibitor containing dZ/FdZ (dZ-linear is 5′-AT3dZAT3, FdZ-linear is 5′-AT3FdZAT3) that were characterized earlier.^1-2 Residual activity of A3BCTD-QM-ΔL3-AL1swap on the unmodified oligo (5′-T4dCAT) as a substrate in the presence of a known concentration of dZ/FdZ-containing inhibitors (linear and cross-linked) was measured using NMR assay.
(§1) For determination of inhibition constants (KI) of inhibitors the inventors first evaluated kinetic parameters of A3BCTD-QM-ΔL3-AL1swap on two DNA substrates (Table 5), which were used to detect the residual deamination rate in the presence of inhibitors (Table 6). Fitting the experimental data by non-linear least squares using a global fit provided similar values of kinetic parameters to those obtained by the linearized Lineweaver-Burk plot (Table 5). Then, the inhibition constants for strongest cross-linked inhibitors were calculated by several methods assuming a competitive mode of inhibition^1 (Table 6) based on experiments in which the concentration of the individual inhibitor was varied, and the residual deamination initial rate was measured.
Residual activity of A3BCTD-QM-ΔL3-AL1swap on the unmodified oligo (5′-T4CAT) as a substrate in the presence of a known concentration of inhibitors was measured using the NMR assay as described in Example 5.

[3] = biological target: A3BCTD-QM-ΔL3-AL1swap; experiment: Isothermal titration calorimetry (ITC), binding to A3BCTD-QM-ΔL3-AL1swap; parameters: species or system human; settings: ITC buffer 3 (Na+/K+ phosphate, pH 6.0, 200 mM trimethylamine N-oxide), 25° C
From the text: (§2) The inventors used isothermal titration calorimetry (ITC) to determine binding of the cross-linked oligos to A3 enzymes, specifically to A3A-E72A, where the active-site glutamic acid is replaced with alanine, and to the catalytically competent A3BCTD-QM-ΔL3-AL1swap and compared this binding to that of linear oligos.
For oligos containing dZ, catalytically active A3BCTD-QM-ΔL3-AL1swap was used, as it has the active-site glutamic acid required for protonation of N3 in dZ, which activates C4 in dZ to accept nucleophilic OH^−/H2O coordinated to the Zn^2+, which converts dZ into a transition-state or an intermediate analogue of cytidine deamination.^8
For A3BCTD-QM-ΔL3-AL1swap we used ITC buffer 3: 50 mM Na^+/K^+ phosphate, pH 6.0, 200 mM trimethylamine N-oxide dihydrate, 2.5 mM TCEP, 200 μM EDTA. Data evaluation was performed with the software provided by the supplier of MicroCal ITC200.

[4] = biological target: human CDA (Homo sapiens, UniProt P32320); experiment: UV-Vis based deamination assay against human CDA; assay type: biochemical; settings: 27 nM human CDA; for Ki: 2 mM dC, absorbance at 286 nm, Lambert's W function
Chain of human CDA (P32320 whole entry): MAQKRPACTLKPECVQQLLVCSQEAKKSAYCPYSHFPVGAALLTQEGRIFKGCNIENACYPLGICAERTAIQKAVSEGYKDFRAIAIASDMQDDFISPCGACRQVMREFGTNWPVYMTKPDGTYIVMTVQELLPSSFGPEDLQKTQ
Method: FIG. 12 is a graph showing the initial rate of human CDA-catalysed deamination of 2′-deoxycytidine (dC) in the absence (no inhibitor) and presence of dZ, 34R and 34S. Conditions: 100 μM dC as a substrate, using different concentrations of inhibitors, 27 nM human CDA in 20 mM Na-phosphate buffer, pH 6.0 supplemented with 100 mM NaCl at 25° C. Absorbance was measured at 286 nm at the start of deamination. Samples labelled as “preincubated” refer to experiments when the enzyme was preincubated for 5 min with inhibitors and then 100 μM dC was added.
The seven-membered ring-containing nucleosides synthesized were tested for their inhibition potential against human CDA enzyme by a UV-Vis based deamination assay. All data were obtained by monitoring absorbance of 2′-deoxycytidine at 286 nm and 25° C., where the deamination of cytosine leads to a decrease in absorption. For nucleosides 34R and 34S, the condition of the assay used was 27 nM human CDA and 100 μM dC as a substrate in 20 mM Na-phosphate buffer, 100 mM NaCl at pH 6.0; an average of 8 measurements was done for each nucleoside. As the original 7-membered ring nucleosides were reported as slow-binding inhibitors of CDA,^10 preincubation conditions of an inhibitor with CDA were also tested for the assay and labelled as ‘preincubation’. Here, the nucleosides were preincubated with the enzyme for 5 min and then 100 μM dC substrate was added to start the measurements (FIG. 12).

[5] = biological target: A3A-E72A (Homo sapiens, UniProt P31941, E72A); experiment: Isothermal titration calorimetry (ITC), binding to A3A-E72A; settings: 25° C
Chain of A3A-E72A (P31941 whole entry E72A): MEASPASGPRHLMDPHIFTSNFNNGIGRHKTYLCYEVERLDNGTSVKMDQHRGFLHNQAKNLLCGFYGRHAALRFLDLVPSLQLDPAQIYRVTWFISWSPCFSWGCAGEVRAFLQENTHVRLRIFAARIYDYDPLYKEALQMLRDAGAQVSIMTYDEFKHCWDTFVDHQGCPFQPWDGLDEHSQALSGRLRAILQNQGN
Method: as §2
Desalted unmodified DNA oligonucleotides were purchased (Integrated DNA Technologies) at 1 or 5 μmol synthesis scale and dissolved in one of the buffers described below to give 10 mM solutions. ITC experiments were conducted at 25° C. using a MicroCal ITC200 (now Malvern Instruments) isothermal titration calorimeter. […] The ratio of protein to oligonucleotide concentration is usually 1:10. Titrations are made up of 30 individual additions. To prevent protein precipitation during the long time-scale of the experiment it was necessary to used improved ITC buffers. ITC buffer 1: 50 mM MES, pH 6.0, 100 mM NaCl, 200 μM EDTA, 1 mM β-mercaptoethanol and ITC buffer 2: 50 mM Na^+/K^+ phosphate, pH 6.0, 50 mM NaCl, 50 mM choline acetate, 2.5 mM TCEP, 200 μM EDTA with 30 mg/mL BSA. After preparation, ITC buffer 2 was frozen and defrosted before the experiments. ITC buffer 2* is freshly prepared buffer 2.
In contrast, A3A-E72 Å was used, particularly for oligos containing dC so that the complications of deamination can be avoided, although this mutation, notwithstanding no change to active-site structure, does cause a small but significant diminution in ligand binding^1 through loss of hydrogen bonding to the ligand. The inventors expect that the binding of inactivated A3BCTD-QM-ΔL3-AL1swap to the substrate will be close to or even worse than Km of 200 μM, which places substrate binding outside ITC applicability. One should emphasise that the composition of buffers used for NMR kinetic and ITC binding experiments are different, mainly because proteins in ITC experiments need to be at much higher concentration than for kinetic assays (10-100 μM for ITC versus 20-300 nM in kinetic experiments).

[6] = tested on: A3BCTD-QM-ΔL3-AL1swap; experiment: Real-time NMR assay: deamination of DNA substrates by A3BCTD-QM-ΔL3-AL1swap; assay type: biochemical, human
Method: FIG. 5 is a set of graphs showing the initial rate of A3BCTD-QM-ΔL3-AL1swap catalyzed deamination of terminally (A), internally (B-D) cross-linked oligos and a dC-hairpin in comparison with the linear substrate. Substrate concentrations are 100 μM in (A and B), 800 μM in (C) and 400 μM in (D). Enzyme concentrations are 50 nM in (A and B) and 300 nM in (C) and 100 nM in (D). Buffers are 50 mM citrate-phosphate (pH 5.5 for A-C) and 50 mM Na-phosphate (pH 6.0 for D), 200 mM NaCl, 2 mM β-mercaptoethanol, 200 μM 4,4-dimethyl-4-silapentane-1-sulfonic acid (DSS) and 10% D2O at 25° C. Error bars are estimated standard deviations from triplicate measurements.
Real-time NMR assays are advantageous because they are direct, utilizing only A3 enzymes and oligos in a suitable buffer system, in contrast to many fluorescence-based assays where a secondary enzyme and a fluorescently modified oligo are used. The NMR-based assay described herein allows a Michaelis-Menten kinetic model to be used to characterize both A3 substrates and inhibitors based on direct determination of the initial velocity of deamination of various ssDNA substrates (including modified substrates) in the presence of A3 enzymes.
The A3 enzyme used in the experiments detailed herein is the well-characterized and very active A3BCTD-QM-ΔL3-AL1swap,^1 where loop 3 is deleted and loop 1 is replaced with the corresponding loop 1 from A3A in addition to four point mutations remote to the enzyme's active site. […] Recent work by the inventors on the related enzyme, A3G, has shown that inhibition of the C-terminal catalytic domain is mirrored by the inhibition of the full-length enzyme, validating their approach of using catalytic C-terminal domains for inhibitor development.^2
Using the 9-mer oligonucleotide ATTTCATTT (5′-AT3dCAT3) (SEQ ID NO: 1) as the standard substrate, the inventors compared the deamination of both terminally and internally cross-linked oligos prepared as above using a previously described real-time NMR assay.^1, 45 For the terminally cross-linked oligos, decreased rates of deamination were observed from 9-mer to 5-mer. The number of phosphates of the modified 9-mer sequence is the same as for the 9-mer DNA control (FIG. 5A). […] The next internal cross-link 2 was designed based on modified nucleotides dU^E and dA^N3. […] However, a marked 2.3 times increase in deamination rate was detected for oligo dC[C^N3(−2),H^E1(+1)]X having internal cross-link 3 connecting −2 and +1 positions in the DNA sequence (FIG. 5D). It is surprising that synthetic oligo dC[C^N3(−2),H^E1(+1)]X was deaminated even faster than a native DNA hairpin.
as §1

[7] = Lineweaver-Burk plot for the substrate/Dixon plot for the inhibitor
[8] = Non-linear regression analysis for both substrate and inhibitor
[9] = Linear analysis (Lineweaver-Burk plot)

T1 sequence (P31941 whole entry): as the sequence (P31941 whole entry E72A) above, with A72E counted along it

5'-TGCGCTT-46-GCGCT [46-hairpin-3]
Ki [1]: 290 ± 40 nM

5′-AT3FdZAT3 [FdZ-linear]
Ki [1]: 2400 ± 940 nM
inhibition of deamination of 5′-T4CAT (in words) ([2]; 400 μM 5′-T4CAT, 8 or 4 μM oligo, 300 or 200 nM enzyme, pH 6.0 (FIG. 6)): more powerful inhibitor of A3BCTD-QM-ΔL3-AL1swap than dZ-linear oligo
Ki [2, 7]: 2100 ± 800 nM
Ki [2, 8]: 4400 ± 700 nM
Vmax [2, 8]: 0.0126 ± 0.0008 µM/s
inhibition effect: Km of 5′-AT3dCAT3 (150 μM) compared with apparent Ki [2]: 35 fold

5′-AT3dZAT3 [dZ-linear]
Kd [3]: 11400 ± 2300 nM
Ki [2, 7]: 7500 ± 1700 nM
Ki [2, 8]: 7000 ± 1300 nM
Vmax [2, 8]: 0.0126 ± 0.0008 µM/s
inhibition effect: Km of 5′-AT3dCAT3 (150 μM) compared with apparent Ki [2]: 20 fold

O=C1CC[C@H](O)CCN1[C@H]1C[C@H](O)[C@@H](CO)O1 [compound 34S, 1-[2-deoxy-β-D-erythro-pentofuranosyl]-(S)-5-hydroxyazepan-2-one]
inhibitory potential against human CDA ([4]; 100 μM dC, pH 6.0, 25° C, with and without 5 min preincubation (FIG. 12)): some inhibitory potential

O=C1NCC=CCN1[C@H]1C[C@H](O)[C@@H](CO)O1 [compound 46, 1-[2-deoxy-β-D-erythro-pentofuranosyl]-1,3,4,7-tetrahydro-2H-1,3-diazepin-2-one]
Ki [4]: 430 ± 80 nM

O=c1ncccn1[C@H]1C[C@H](O)[C@@H](CO)O1 [dZ, 2′-deoxyzebularine]
Ki [4]: 10700 ± 500 nM

ATTTCATTT [5′-AT3dCAT3]
Kd ([5]; ITC buffer 1 (50 mM MES, pH 6.0)): 200 ± 60 nM
Kd ([5]; ITC buffer 2 (Na+/K+ phosphate, pH 6.0, BSA; frozen and defrosted)): 120 ± 30 nM
Kd ([5]; ITC buffer 2* (freshly prepared buffer 2)): 130 ± 30 nM
Km [6, 9]: 200 ± 30 µM
Vmax [6, 9]: 0.014 ± 0.002 µM/s
kcat [6, 9]: 0.29 ± 0.04 s⁻¹
Km ([6]; Non-linear regression analysis): 150 µM
Vmax ([6]; Non-linear regression analysis): 0.0126 ± 0.0008 µM/s
kcat ([6]; Non-linear regression analysis): 0.26 ± 0.02 s⁻¹
